# Test results taken from PubChem BioAssay AID513 (SGCOxCompounds, 2006).
# Target: Casein kinase I isoform gamma-1 (Homo sapiens) (UniProt Q9HCP0)
# Test: CSNK1G1 binders by thermal stabilization, biophysical, DSF, SYPRO orange, recombinant protein (AID 513)
# Settings: at 10 µM, protein 2 µM, active compounds read high
# Casein kinase I isoform gamma-1 (Homo sapiens), sequence (Q9HCP0 whole entry, looked up, canonical isoform): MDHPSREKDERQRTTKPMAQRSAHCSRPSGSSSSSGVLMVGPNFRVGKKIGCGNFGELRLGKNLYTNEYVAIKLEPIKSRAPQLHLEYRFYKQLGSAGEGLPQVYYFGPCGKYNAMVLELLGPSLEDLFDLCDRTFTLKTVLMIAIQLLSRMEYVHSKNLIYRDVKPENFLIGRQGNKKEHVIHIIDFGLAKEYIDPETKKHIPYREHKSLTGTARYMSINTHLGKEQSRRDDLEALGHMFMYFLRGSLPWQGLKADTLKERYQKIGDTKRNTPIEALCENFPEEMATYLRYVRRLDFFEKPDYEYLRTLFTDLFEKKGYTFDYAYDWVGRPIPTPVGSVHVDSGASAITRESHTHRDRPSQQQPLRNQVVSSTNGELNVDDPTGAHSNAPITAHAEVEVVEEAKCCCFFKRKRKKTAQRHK
row,Compound,Tm shift [Celsius]
1,O=c1c(O)c(-c2ccc(O)c(O)c2)oc2cc(O)cc(O)c12,3.2
2,Oc1ccc(Nc2nccn3c(-c4cn[nH]c4)cnc23)cc1,3.2
3,CCN(CC)CCNC(=O)c1c(C)[nH]c(/C=C2\C(=O)Nc3ccc(Cl)cc32)c1C,4.3
4,O=Nc1c(-c2c(O)[nH]c3cc(Br)ccc23)[nH]c2ccccc12,3.5
5,NC(=O)c1ccc(-c2nc(-c3ccc4c(c3)OCCO4)c(-c3ccccn3)[nH]2)cc1,6.1
6,NC1=N/C(=C2\CCNC(=O)c3[nH]ccc32)C(=O)N1,3.6
7,Cc1cc(Nc2nc(-c3ccccc3)nc3ccccc23)n[nH]1,3.3
8,COc1ccc(Nc2nc(N)c(C(=O)c3ccc(Cl)cc3)s2)cc1,4.1
9,O=c1[nH]c(O)c2c1c1c3ccccc3nc1n1cncc21,4.3
10,CSc1nc(-c2ccnc(NC(C)c3ccccc3)c2)c(-c2ccc(F)cc2)[nH]1 (configuration not stated),3.6
11,CC(C)n1cnc2c(Nc3cccc(Cl)c3)nc(NCCO)nc21,6.1
12,NC1=N/C(=C2/CCNC(=O)c3[nH]c(Br)cc32)C(=O)N1,5.7
13,Nc1nc(Nc2ccc(F)cc2)sc1C(=O)c1ccccc1,4.1
14,O=Nc1c(-c2c(O)[nH]c3ccc(S(O)(O)O)cc23)[nH]c2ccccc12,4
15,Nc1nc(Nc2ccccc2)sc1C(=O)c1ccc(F)cc1,3.9
16,COc1ccc(Nc2nc(N)c(C(=O)c3ccc(OC)cc3)s2)cc1,5.6
17,Clc1ccc(Nc2ncc(-c3cn[nH]c3)n3ccnc23)cc1,3.6
18,Nc1nc(Nc2cccc(Cl)c2)sc1C(=O)c1ccc(F)cc1,5.3
19,N#C/C(=C1\Nc2ccccc2S1)c1ccnc(NCCc2cccnc2)n1,3.7
20,CCn1cnc2c(Nc3cccc(Cl)c3)nc(N[C@@H]3CCCC[C@@H]3N)nc21,5.8
21,COc1cc(/C=C/C(=O)CC(=O)/C=C/c2ccc(O)c(OC)c2)ccc1O,4.5
22,Nc1nc(Nc2ccccc2F)sc1C(=O)c1ccc(Br)cc1,3.9
